pIC50: −log10 of the molar value.
Tests used:
PC3 cells = assay: MTT assay for cell viability; assay type: cell-based; details: doses of 0, 1, 2.5, 3.75, 5.0, 8.0 micromolar
Description: The MTT assay is used to measure cellular metabolic activity as an indicator of cell viability, proliferation and cytotoxicity. This colorimetric assay is based on the reduction of a yellow tetrazolium salt (3-(4,5-dimethylthiazol-2-yl)-2,5-diphenyltetrazolium bromide or MTT) to purple formazan crystals by metabolically active cells. The viable cells contain NAD(P)H-dependent oxidoreductase enzymes which reduce the MTT to formazan. The insoluble formazan crystals are dissolved using 1-Propanol as a solubilization solution and the resulting purple colored solution is quantified by measuring absorbance at 570 nanometers (nm) using a multi-well spectrophotometer.
Protocol for MTT Assay: 100,000 PC3 cells were seeded per-well (CRL-1435, ATCC) for each dose of treatment 24 hours before treatment. Cells were quantitated with Countess II Cell Counter (AMQAX1000, Thermofisher Scientific). Cells were maintained at 37° C. with 5% CO2. SMAPs (dissolved in DMSO) were diluted to a stock concentration of 10 mM. Dilutions to the needed concentrations were made in DMEM (SH30022FS, Hyclone, GE Healthcare Life Sciences). Cells were treated with appropriate concentrations of compound. After 24 hours, MTT solution (M5655-1G, Sigma-Aldrich) was added to cells. Formazan crystals of metabolically active cells were dissolved with 1-Propanol (A414-500, ThermoFisher Scientific) and the solution was measured by absorbance at 570 nm (SpectraMax M5e, Molecular Devices).
Examples 1-3, 7-31, and 33-41 have also been studied in the above-described MTT assay for cell viability at four dose treatments (0, 2.5, 5.0, 10.0 micromolar).

[1] = biological target: (Homo sapiens, UniProt O95931); assay: Fluorescence anisotropy (FP) competition binding assay; details: 10 nM FAM-ANRIL as probe
Description: Fluorescence Anisotropy Binding Assay
Expression and purification of the first bromodomain (BrD1) of human BRD4 in poly-His tag form was performed using a procedure described in the literature [See Zeng et al. Structure 16, 643-652 (2008) and Zhang et al., J Biol Chem 287, 28840-28851 (2012).] The protein was purified by using affinity chromatography on a nickel-IDA column (Invitrogen), followed by the removal of poly-His tag by thrombin cleavage.
Measurements were obtained after 1 hour incubation of the fluorescent ligand and the protein at 25° C. with Safire 2 microplate reader (Tecan). In the assay, fluorescent ligand concentration was ≤2Kd, and protein concentration was set at which 50-80% of fluorescent ligand is bound. Dissociation constant of a competing ligand was calculated with the correction to Cheng-Prussoff equation introduced by Nicolovska-Coleska and colleagues [Nikolovska-Coleska, Z. et al., Anal Biochem 332, 261-273 (2004). Assuming one-site competitive binding model, the equation used to calculate K1's from IC50 values recovered from fitting data using Prism:
where [I50] is the concentration of free inhibitor at 50% inhibition, [L50], the concentration of free labeled ligand at 50% inhibition, and [P0], concentration of free protein at 0% inhibition. Note that Kd for each protein-probe pair is the limit of resolvable K1 in a competition assay.

CBX7ChD = CBX7ChD (Homo sapiens (Human), UniProt O95931); details: cited from earlier work
[2] = system: p16INK4a in prostate cancer cells; details: cited from earlier work
[3] = Homo sapiens, PC-3, 24 hours treatment

(Homo sapiens, UniProt O95931), sequence (O95931 whole entry, looked up): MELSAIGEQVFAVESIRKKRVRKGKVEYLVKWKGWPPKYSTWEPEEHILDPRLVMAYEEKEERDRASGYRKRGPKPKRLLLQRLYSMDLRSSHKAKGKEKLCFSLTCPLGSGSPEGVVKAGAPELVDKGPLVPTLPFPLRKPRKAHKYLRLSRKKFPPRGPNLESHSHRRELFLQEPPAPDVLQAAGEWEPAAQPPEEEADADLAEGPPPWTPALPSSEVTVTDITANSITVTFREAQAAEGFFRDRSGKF
CBX7ChD, sequence (O95931 11-69): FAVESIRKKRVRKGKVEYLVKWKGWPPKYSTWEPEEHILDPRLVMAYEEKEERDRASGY

N=c1n(Cc2cn(Cc3ccccc3F)nn2)c2ccccc2n1CC(O)c1ccc(Cl)c(Cl)c1 (stereo not drawn) [Example 10, 1-(3,4-dichlorophenyl)-2-(3-((1-(2-fluorobenzyl)-1H-1,2,3-triazol-4-yl)methyl)-2-imino-2,3-dihydro-1H-benzo[d]imidazol-1-yl)ethan-1-ol]
pIC50 (PC3 cells; [3]): 5.74

C#CCn1c(=N)n(CC(O)c2ccc(Cl)c(Cl)c2)c2ccccc21 (stereo not drawn) [Example 6, 1-(3,4-dichlorophenyl)-2-(2-imino-3-(prop-2-yn-1-yl)-2,3-dihydro-1H-benzo[d]imidazol-1-yl)ethan-1-ol]
Kd [1]: 1.53 µM

N=c1n(Cc2cn(-c3ccccc3)nn2)c2cc(Cl)ccc2n1CC(O)c1ccc(Cl)c(Cl)c1 (stereo not drawn) [Example 35, 2-(5-chloro-2-imino-3-((1-phenyl-1H-1,2,3-triazol-4-yl)methyl)-2,3-dihydro-1H-benzo[d]imidazol-1-yl)-1-(3,4-dichlorophenyl)ethanol]
pIC50 (PC3 cells; [3]): 5.95

Cc1ccccc1Cn1c(=N)n(CC(O)c2ccc(Cl)c(Cl)c2)c2ccc(F)cc21 (stereo not drawn) [Example 2, 1-(3,4-dichlorophenyl)-2-(5-fluoro-2-imino-3-(2-methylbenzyl)-2,3-dihydro-1H-benzo[d]imidazol-1-yl)ethan-1-ol]
pIC50 (PC3 cells; [3]): 6.05

Cc1ccccc1Cn1c(=N)n(CC(O)c2ccc(Cl)c(Cl)c2)c2ccc(Cl)cc21 (stereo not drawn) [Example 3, 2-(5-chloro-2-imino-3-(2-methylbenzyl)-2,3-dihydro-1H-benzo[d]imidazol-1-yl)-1-(3,4-dichlorophenyl)ethan-1-ol]
pIC50 (PC3 cells; [3]): 6.11

Cc1ccc(Cn2cc(Cn3c(=N)n(CC(O)c4ccc(Cl)c(Cl)c4)c4ccccc43)nn2)cc1 (stereo not drawn) [Example 9, 1-(3,4-dichlorophenyl)-2-(2-imino-3-((1-(4-methylbenzyl)-1H-1,2,3-triazol-4-yl)methyl)-2,3-dihydro-1H-benzo[d]imidazol-1-yl)ethan-1-ol]
pIC50 (PC3 cells; 24 hours treatment): 6.05
Kd [1]: 0.108 µM

Cc1ccccc1Cn1c(=N)n(CC(O)c2ccc(Cl)c(Cl)c2)c2ccccc21.Cl (stereo not drawn) [MS351]
selectivity for CBX7ChD (over CBX2/4/6/8) (CBX7ChD): selective for CBX7ChD
de-repression of p16INK4a [2]: de-repress

— patent publication US12473263B2, “Bicyclic inhibitors of CBX chromodomains” (Icahn School of Medicine At Mount Sinai, priority 2019, dated 2025)
